The test system of test [1] is Candida albicans (ATCC no. 10231). As to the kind of experiment: MIC determination by broth microdilution (NCCLS), visual scoring. In kind it is cell-based. In a few lines: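 NCCLS broth microdilution in RPMI 1640 with 10 mM HEPES, final compound 0.5–128 μg/mL, DMSO ≤1%. Inoculum from 0.5 McFarland stock diluted 1:50; incubated 35 °C for 48–72 h. MIC scored visually as lowest concentration giving ~80% growth reduction versus drug-free wells.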
In general terms: In broth dilution the organism is exposed to a series of concentrations in liquid medium.

In test [2] the test system is Candida glabrata (ATCC no. 48435). Described as above. In kind it is cell-based. As for the experimental part: The antifungal activity of the 2,4,6-pyrimidinetrione analogs shown in Schemes 2-6 were evaluated in vitro using Candida albicans (ATCC no. 10231) and Candida glabrata (ATCC no 48435). All assays were done in accordance with NCCLS reference documents^29. The results of these screenings are summarized in Tables 1-9 as the minimal inhibitory concentrations that inhibited more than 80% fungal growth as compared to the positive controls in 1% DMSO and RPMI media. All MIC screens were done using a visual scoring method as opposed to spectroscopic methods of analysis, due to the physical properties of many of the compounds altering their absorbance spectra relative to the positive, negative and drug controls.
None of the compounds tested over the course of these studies were soluble in water and DMSO was used to dilute each compound tested. Master stock concentrations of all tested compounds were prepared to ensure that the maximum final concentration of DMSO was 1% or less. Subsequent 2-fold serial dilutions were made using sterile water to a final concentration of 1280-5.00 μg/ml. A final 10-fold dilution of each drug was made by aliquotting 0.1 mL of each drug dilution into 0.9 mL of fungal suspension in RPMI 1640 media with 10 mM HEPES buffer added (see methodology below), giving final concentrations tested in the range of 128-0.5 μg/ml.
Antifungal susceptibility studies and minimal inhibitory concentrations (MIC) values for Candida albicans (ATCC no. 10231) and Candida glabrata (ATCC no. 48435) were determined by the broth microdilution technique in accordance with NCCLS reference documents. Microdilution panels ranged from 0.5 to 128 μg/mL. All organisms were subcultured on Sabouraud agar and passaged to ensure purity and viability. The initiating inocula were prepared by picking 5-7 isolated colonies ˜1 mm in diameter from freshly prepared YM agar plates. Colonies were resuspended in sterile water, vortexed and the cell density was adjusted spectrophotometrically to the transmittance of a 0.5 McFarland standard at a wavelength of 530 nm, to yield a stock suspension of 1×10^6-5×10^6 cells/mL. The stock was allowed to hydrate for 30 minutes at room temperature. A working suspension was then made by diluting the stock 1:50 with RPMI 1640 media containing HEPES buffer. The working suspension was used for all assays. The plates were incubated at 35° C. for 48-72 hours in a humid atmosphere. Growth was scored visually. MIC values are defined as the lowest concentration of agent that prevents any discernible growth, ˜80% reduction of growth, as compared with drug-free control wells. All assays were run in parallel using either fluconazole or amphotericin B at the NCCLS recommended concentrations^29 as a drug control (Sigma-Aldrich).

[3] abbreviates: Table 8, N-Acylhydrazones of 5-Acylpyrimidinetriones.
The mark [4] stands for this setting: Table 7, Phenylhydrazones of 5-Acylpyrimidinetriones.
The mark [5] stands for this setting: Table 2, 5-Arylidene-2,4,6-pyrimidinetriones.
The mark [6] stands for this setting: Table 3, 5-Alkylated Pyrimidinetriones.

Values after ≈ are worked out from the molar mass of the structure shown.

Here are results for 20 molecules from patent US20160235752A1, “COMPOSITIONS, METHODS OF USE, AND METHODS OF TREATMENT” (THE UNIVERSITY OF NEW ORLEANS, priority 2013, published 2016).

On to `COC(=O)NN=C(c1ccc(O)cc1)C1C(=O)N(C)C(=O)N(C)C1=O` [BA36], for which the “MIC80 C. albicans” value in test [1] (setting [3]) is reported as “— (none of the 5-acyl-2,4,6-pyrimidinetriones, 5-alkylated pyrimidinetriones or the 5,5-dialkylated pyrimidinetriones showed antifungal activity through 125 μg/mL)”. In addition, the “MIC80 C. glabrata” value in test [2] (setting [3]) is recorded as “— (none of the 5-acyl-2,4,6-pyrimidinetriones, 5-alkylated pyrimidinetriones or the 5,5-dialkylated pyrimidinetriones showed antifungal activity through 125 μg/mL)”.

As to `COC(=O)NN=C(c1ccc([N+](=O)[O-])cc1)C1C(=O)NC(=O)NC1=O` [BA37], the “MIC80 C. albicans” value in test [1] (setting [3]) was “— (none of the 5-acyl-2,4,6-pyrimidinetriones, 5-alkylated pyrimidinetriones or the 5,5-dialkylated pyrimidinetriones showed antifungal activity through 125 μg/mL)”. In test [2] (setting [3]), the “MIC80 C. glabrata” value is “— (none of the 5-acyl-2,4,6-pyrimidinetriones, 5-alkylated pyrimidinetriones or the 5,5-dialkylated pyrimidinetriones showed antifungal activity through 125 μg/mL)”.

`O=C1NC(=O)C(C(=NNc2ccc(C(=O)O)cc2)C2C(=O)NC(=O)NC2=O)C(=O)N1` [BA38]: in test [1] (setting [4]), the “MIC80 C. albicans” value was “— (none of the 5-acyl-2,4,6-pyrimidinetriones, 5-alkylated pyrimidinetriones or the 5,5-dialkylated pyrimidinetriones showed antifungal activity through 125 μg/mL)”. Further, the “MIC80 C. glabrata” value in test [2] (setting [4]) is 125 µg/mL (≈ 300 µM).

As to `O=C1NC(=O)C(=Cc2ccccc2)C(=O)N1` [BA39], in test [1] (setting [5]), the “MIC80 C. albicans” value was “— (none of the 5-acyl-2,4,6-pyrimidinetriones, 5-alkylated pyrimidinetriones or the 5,5-dialkylated pyrimidinetriones showed antifungal activity through 125 μg/mL)”. The “MIC80 C. glabrata” value in test [2] (setting [5]) is “— (none of the 5-acyl-2,4,6-pyrimidinetriones, 5-alkylated pyrimidinetriones or the 5,5-dialkylated pyrimidinetriones showed antifungal activity through 125 μg/mL)”.

`O=C1NC(=O)C(=Cc2ccc3ccccc3c2)C(=O)N1` [BA40]: in test [1] (setting [5]), the “MIC80 C. albicans” value was 125 µg/mL (≈ 469 µM). Further, the “MIC80 C. glabrata” value in test [2] (setting [5]) is “— (none of the 5-acyl-2,4,6-pyrimidinetriones, 5-alkylated pyrimidinetriones or the 5,5-dialkylated pyrimidinetriones showed antifungal activity through 125 μg/mL)”.

Turning to `O=C1NC(=O)C(=Cc2cccc3ccccc23)C(=O)N1` [BA41], in test [1] (setting [5]), the “MIC80 C. albicans” value amounted to 125 µg/mL (≈ 469 µM). In addition, the “MIC80 C. glabrata” value in test [2] (setting [5]) is “— (none of the 5-acyl-2,4,6-pyrimidinetriones, 5-alkylated pyrimidinetriones or the 5,5-dialkylated pyrimidinetriones showed antifungal activity through 125 μg/mL)”.

Regarding `CN1C(=O)C(=CC=Cc2ccccc2)C(=O)N(C)C1=O` [BA43], the “MIC80 C. albicans” value in test [1] (setting [5]) was 62 µg/mL (≈ 229 µM). Also, the “MIC80 C. glabrata” value in test [2] (setting [5]) was 125 µg/mL (≈ 462 µM).

Turning to `O=C1NC(=O)C(=Cc2ccc(O)cc2)C(=O)N1` [BA44], in test [1] (setting [5]), the “MIC80 C. albicans” value was “— (none of the 5-acyl-2,4,6-pyrimidinetriones, 5-alkylated pyrimidinetriones or the 5,5-dialkylated pyrimidinetriones showed antifungal activity through 125 μg/mL)”. In addition, in test [2] (setting [5]), the “MIC80 C. glabrata” value was “— (none of the 5-acyl-2,4,6-pyrimidinetriones, 5-alkylated pyrimidinetriones or the 5,5-dialkylated pyrimidinetriones showed antifungal activity through 125 μg/mL)”.

Regarding `CN1C(=O)C(=Cc2ccc(O)cc2)C(=O)N(C)C1=O` [BA45], the “MIC80 C. albicans” value in test [1] (setting [5]) is given as “— (none of the 5-acyl-2,4,6-pyrimidinetriones, 5-alkylated pyrimidinetriones or the 5,5-dialkylated pyrimidinetriones showed antifungal activity through 125 μg/mL)”. For the same molecule, the “MIC80 C. glabrata” value in test [2] (setting [5]) is “— (none of the 5-acyl-2,4,6-pyrimidinetriones, 5-alkylated pyrimidinetriones or the 5,5-dialkylated pyrimidinetriones showed antifungal activity through 125 μg/mL)”.

With `O=C1NC(=O)N(c2ccccc2)C(=O)C1=Cc1ccc(O)cc1` [BA46], in test [1] (setting [5]), the “MIC80 C. albicans” value is reported as “— (none of the 5-acyl-2,4,6-pyrimidinetriones, 5-alkylated pyrimidinetriones or the 5,5-dialkylated pyrimidinetriones showed antifungal activity through 125 μg/mL)”. Also, in test [2] (setting [5]), the “MIC80 C. glabrata” value is on record as “— (none of the 5-acyl-2,4,6-pyrimidinetriones, 5-alkylated pyrimidinetriones or the 5,5-dialkylated pyrimidinetriones showed antifungal activity through 125 μg/mL)”.

Consider `O=C1NC(=O)C(=Cc2ccccc2O)C(=O)N1` [BA47, 5-(2-hydroxybenzylidene)pyrimidine-2,4,6-trione], for which the MIC80 (as a rule, an inhibitory concentration at the 80% level, which refers to growth in some studies and to a panel of isolates in others) was more than 125 µg/mL in test [1] (Candida albicans, ATCC10231, read-out: MIC80 C. albicans) and 8 µg/mL (≈ 34.5 µM) in test [2] (Nakaseomyces glabratus, ATCC48435, read-out: MIC80 C. glabrata).

In the case of `CN1C(=O)C(=Cc2ccc(O)cc2O)C(=O)N(C)C1=O` [BA48], the “MIC80 C. albicans” value in test [1] (setting [5]) was “— (none of the 5-acyl-2,4,6-pyrimidinetriones, 5-alkylated pyrimidinetriones or the 5,5-dialkylated pyrimidinetriones showed antifungal activity through 125 μg/mL)”. For the same molecule, the “MIC80 C. glabrata” value in test [2] (setting [5]) turned out to be 2 µg/mL (≈ 7.24 µM).

Take `COc1ccc(C=C2C(=O)N(C)C(=O)N(C)C2=O)cc1` [BA50]: the “MIC80 C. albicans” value in test [1] (setting [5]) was “— (none of the 5-acyl-2,4,6-pyrimidinetriones, 5-alkylated pyrimidinetriones or the 5,5-dialkylated pyrimidinetriones showed antifungal activity through 125 μg/mL)”. In test [2] (setting [5]), the “MIC80 C. glabrata” value is “— (none of the 5-acyl-2,4,6-pyrimidinetriones, 5-alkylated pyrimidinetriones or the 5,5-dialkylated pyrimidinetriones showed antifungal activity through 125 μg/mL)”.

In the case of `COc1ccc(C=C2C(=O)N(C)C(=O)N(C)C2=O)c(OC)c1OC` [BA51], the “MIC80 C. albicans” value in test [1] (setting [5]) was “— (none of the 5-acyl-2,4,6-pyrimidinetriones, 5-alkylated pyrimidinetriones or the 5,5-dialkylated pyrimidinetriones showed antifungal activity through 125 μg/mL)”. For the same molecule, the “MIC80 C. glabrata” value in test [2] (setting [5]) is given as “— (none of the 5-acyl-2,4,6-pyrimidinetriones, 5-alkylated pyrimidinetriones or the 5,5-dialkylated pyrimidinetriones showed antifungal activity through 125 μg/mL)”.

For `COc1cc(OC)c(C=C2C(=O)N(C)C(=O)N(C)C2=O)c(OC)c1` [BA52], the “MIC80 C. albicans” value in test [1] (setting [5]) was “— (none of the 5-acyl-2,4,6-pyrimidinetriones, 5-alkylated pyrimidinetriones or the 5,5-dialkylated pyrimidinetriones showed antifungal activity through 125 μg/mL)”. Also, the “MIC80 C. glabrata” value in test [2] (setting [5]) was “— (none of the 5-acyl-2,4,6-pyrimidinetriones, 5-alkylated pyrimidinetriones or the 5,5-dialkylated pyrimidinetriones showed antifungal activity through 125 μg/mL)”.

`CN(C)c1ccc(C=C2C(=O)NC(=O)NC2=O)cc1` [BA53]: the “MIC80 C. albicans” value in test [1] (setting [5]) was determined as 62 µg/mL (≈ 239 µM). Moreover, the “MIC80 C. glabrata” value in test [2] (setting [5]) is recorded as “— (none of the 5-acyl-2,4,6-pyrimidinetriones, 5-alkylated pyrimidinetriones or the 5,5-dialkylated pyrimidinetriones showed antifungal activity through 125 μg/mL)”.

Turning to `CN1C(=O)C(=Cc2ccc(N(C)C)cc2)C(=O)N(C)C1=O` [BA54], the “MIC80 C. albicans” value in test [1] (setting [5]) is given as “— (none of the 5-acyl-2,4,6-pyrimidinetriones, 5-alkylated pyrimidinetriones or the 5,5-dialkylated pyrimidinetriones showed antifungal activity through 125 μg/mL)”. Moreover, the “MIC80 C. glabrata” value in test [2] (setting [5]) is recorded as “— (none of the 5-acyl-2,4,6-pyrimidinetriones, 5-alkylated pyrimidinetriones or the 5,5-dialkylated pyrimidinetriones showed antifungal activity through 125 μg/mL)”.

Turning to `O=C1NC(=O)C(=Cc2ccoc2)C(=O)N1` [BA55], the “MIC80 C. albicans” value in test [1] (setting [5]) is “— (none of the 5-acyl-2,4,6-pyrimidinetriones, 5-alkylated pyrimidinetriones or the 5,5-dialkylated pyrimidinetriones showed antifungal activity through 125 μg/mL)”. The “MIC80 C. glabrata” value in test [2] (setting [5]) was “— (none of the 5-acyl-2,4,6-pyrimidinetriones, 5-alkylated pyrimidinetriones or the 5,5-dialkylated pyrimidinetriones showed antifungal activity through 125 μg/mL)”.

As to `O=C1NC(=O)C(=Cc2ccco2)C(=O)N1` [BA56], the “MIC80 C. albicans” value in test [1] (setting [5]) is reported as “— (none of the 5-acyl-2,4,6-pyrimidinetriones, 5-alkylated pyrimidinetriones or the 5,5-dialkylated pyrimidinetriones showed antifungal activity through 125 μg/mL)”. Moreover, the “MIC80 C. glabrata” value in test [2] (setting [5]) was “— (none of the 5-acyl-2,4,6-pyrimidinetriones, 5-alkylated pyrimidinetriones or the 5,5-dialkylated pyrimidinetriones showed antifungal activity through 125 μg/mL)”.

Consider `CCCCCCCC1C(=O)NC(=O)NC1=O` [BA60], for which the “MIC80 C. albicans” value in test [1] (setting [6]) is given as “— (none of the 5-acyl-2,4,6-pyrimidinetriones, 5-alkylated pyrimidinetriones or the 5,5-dialkylated pyrimidinetriones showed antifungal activity through 125 μg/mL)”. In addition, the “MIC80 C. glabrata” value in test [2] (setting [6]) is recorded as “— (none of the 5-acyl-2,4,6-pyrimidinetriones, 5-alkylated pyrimidinetriones or the 5,5-dialkylated pyrimidinetriones showed antifungal activity through 125 μg/mL)”.
